Measured values taken from patent publication US7781580B2, “Stilbene derivatives as new cancer therapeutic agents” (Virginia Commonwealth University, priority 2007, dated 2010).
Read-outs that look alike come from different tables or passages of the source.

How the values were obtained:
[1] = water solubility of stilbene and carbamate prodrug (salts and free base); format: physicochemical; settings: for solubility: water, 20 °C, 20° C.
Method: Stilbene prodrugs may be made by attaching to a stilbene derivative of interest (e.g. a stilbene derivative with anti-tumor activity), chemical groups (or moieties) that render the stilbene derivative more water soluble than before such a modification is carried out. By “water soluble” we mean that more than 20 mg compound can be fully dissolved in 1 mL of water. Further, the chemical groups that are attached to the stilbene derivative to make the derivative water soluble are labile (i.e. removable) in that, upon exposure to in vitro or in vivo hydrolyzing conditions, the chemical groups are removed or dissociated from the stilbene derivative by hydrolysis, releasing the active, anti-tumor form of the stilbene derivative. The chemical groups which are attached may themselves be biologically active, and are, at least, not biologically injurious to cells or mammals. […] As illustrated, morfolinoethyl-urea, morfolinoethyl-carbamate and triethylene glycol (TEG) groups (5a, 5b, 5c, respectively) may be used for this purpose.

[2] = tested on: UCI101 cells; assay: cell cycle analysis (propidium iodide, FACScan), UCI101; format: cell-based
Method: Cells were stained with propidium iodide and analyzed with FACScan. Both 5b at 3 μM and stilbene 4a at 30 nM induce a subG0/1 population that represents the dead population. At higher concentrations of either compound, nearly all cells are dead.
(a) In vitro sensitivity of UCI101 cells toward three potential stilbene prodrugs, 5a-c, was tested in 96-well plates using Alamar Blue™ assays to determine cell growth inhibition. […] (b) 5b induces cell cycle change and apoptosis in UCI101 cells. […] A subG0/1 population, representing apoptotic cells, appeared along with a decrease of the G1/G2 ratio after cells were treated with 3 μM 5b. […] (c) Cells treated with stilbene 4a and 5b were stained with phospho-histone 3B, a mitotic marker. The positive signals of phospho-histone 3B were shown in green and nuclei were stained with DAPI in blue. […] (d) In vivo efficacy of 5b compared with stilbene 4a. Nude mice were injected with UCI101 ovarian cancer cells and treated with 7 doses of 5b,c or stilbene 4a every 2-3 days. Tumor volume was calculated and plotted against days.

[3] = tested on: Hep3B hepatocellular carcinoma cells (xenograft); assay: DCE-MRI tumor vascular perfusion, Hep3B xenograft; format: in vivo, mice; settings: 50 mg/kg intraperitoneally
Method: Mice with established tumor xenografts were used for this study. […] Tumor and kidney, as the representative normal organ, were marked by arrowheads. […] Mice were then left overnight to wash out gadolinium and treated with stilbene 4a at 50 mg/kg intraperitoneally. 4 hours after stilbene injection, mice were imaged with the same protocol. […] Only a small amount of residual gadolinium was still in the tissues.
In order to establish that stilbene suppresses tumor perfusion by damaging tumor endothelial cells, we first incubated human vascular endothelial cells with various concentrations of stilbenes in vitro. After 24 hours of incubation, cells were then fixed with 2% paraformaldehyde and stained with anti-tubulin antibody to examine the tubulin disruption and with DAPI to analyze nuclear fragmentation. Dynamic-contrast enhanced magnetic resonance imaging (MRI) scanning was used to investigate tumor perfusion in vivo. Immunodeficient nude mice were first injected with Hep3B hepatocellular carcinoma cells subcutaneously. […] A region of interest (ROI) was chosen from the scan and the MRI signal in the ROI was plotted against time and the initial steepest slope of the curve was calculated to represent the maximal perfusion of the ROI. […] The perfusion rate of the muscle region was normalized and set at 100% and the rate of perfusion in tumor was calculated versus the muscle. […]

[4] = tested on: UCI101 cells; assay: phospho-histone 3B mitotic marker staining; format: cell-based
Method: (a) In vitro sensitivity of UCI101 cells toward three potential stilbene prodrugs, 5a-c, was tested in 96-well plates using Alamar Blue™ assays to determine cell growth inhibition. […] (b) 5b induces cell cycle change and apoptosis in UCI101 cells. Cells were incubated with 5b at 1, 3, 10 μM for 16 hours followed by PI staining and flow cytometry analysis. A subG0/1 population, representing apoptotic cells, appeared along with a decrease of the G1/G2 ratio after cells were treated with 3 μM 5b. Higher concentration (10 μM) of 5b completely killed cells, as was the case with stilbene 4a at […]. (c) Cells treated with stilbene 4a and 5b were stained with phospho-histone 3B, a mitotic marker. The positive signals of phospho-histone 3B were shown in green and nuclei were stained with DAPI in blue. […] (d) In vivo efficacy of 5b compared with stilbene 4a. Nude mice were injected with UCI101 ovarian cancer cells and treated with 7 doses of 5b,c or stilbene 4a every 2-3 days. Tumor volume was calculated and plotted against days.
The in vitro efficacy of these three compounds was tested in UCI101 cells in 96-well plate format and stained with Alamar blue™, The growth suppression was calculated as was done similarly to other test compounds. […] A dose response was then performed with various concentrations of 5b in vitro. […]

In the case of `COc1cc(/C=C\c2ccc(OC)c(N)c2)cc(OC)c1` [4a, (Z)-5-[2-(3,5-Dimethoxy-phenyl)-vinyl]-2-methoxy-phenylamine], the “water solubility (in words)” value [1] is reported as “limited solubility”, the solubility ([1]; HCl salt, read-out: water solubility, x HCl) is reported as 6000 µg/mL and the solubility ([1]; free base, read-out: water solubility, Free base) is reported as < 1000 µg/mL. For the same compound, the solubility ([1]; oxalate salt, read-out: water solubility, x (COOH)2) was < 1000 µg/mL, the “cell cycle effect” value ([2]; 4a at 30, 100 nM, 5b at 1, 3, 10 μM) was “induced G2/M cell cycle arrest and accumulation of the subG1/0 population” and the “concentration inducing a subG0/1 (dead) population” value ([2]; 24 hours) was 30 nM. The normal vascular perfusion [3] was “without compromising normal vascular perfusion”, the “tumor vascular perfusion (gadolinium enhancement)” value ([3]; 4 hours after injection) was “significantly less gadolinium enhancement” and the “phospho-histone 3B positive cells” value [4] was “dramatic increase in positive cells”.
